From BindingDB's records for doi:10.1016/j.bmcl.2009.09.002 (Novartis Institutes For Biomedical Research, 2009)

Assay: Antagonist activity at human CXCR3 expressed in L1.2 cells assessed as inhibition of I-TAC-induced cell migration by flow cytometry

CCN(CC)C(=O)[C@@H]1C=C2c3cccc4[nH]cc(c34)C[C@H]2N(C(=O)Nc2ccccc2)C1 [(6aR,9R)-N9,N9-diethyl-N7-phenyl-6,6a,8,9-tetrahydroindolo[4,3-fg]quinoline-7,9(4H)-dicarboxamide]
IC50: 74 nM
